Where “and” joins values, the source holds several entries; their conditions need not be identical. Equal values may be shown once. Read-outs that look alike come from different tables or passages of the source. A value given as a limit tells only on which side of the number the result lay.

Data on 14 compounds can be found in patent US20200360381A1, “COMPOUNDS FOR TREATING DENGUE VIRUS INFECTION AND OTHER VIRAL INFECTIONS” (priority 2017, published 2020).

In data set [1] the target is T1, DENV2 sE2 (Dengue virus type 2, UniProt P14340). As to the kind of experiment: biochemical. It counts as binding, Dengue virus 2. The following applies: for IC50: IC50 (AlphaScreen).
Data set [2] has as its target T1, DENV2 sE2. Description: biochemical. It counts as binding, Dengue virus 2.
The test system of data set [3] is DENV2. As to the kind of experiment: Antiviral activity (viral infectivity) assay, single-cycle viral yield. It is filed as cell-based, Dengue virus 2. The following applies: for IC90: Dengue virus.
Data set [4] relates to VSV-eGFP. Description: microbe, parasite or virus in culture. It is filed as cell-based, vesicular stomatitis virus. The following applies: for inhibition at 5 µM / inhibition at 10 µM: Vesicular stomatitis virus, 6 h; for inhibition at 5 µM: read-out: VSV 5 μM; for inhibition at 10 µM: read-out: VSV 10 μM.
The nature of data set [5]: Mouse microsomal stability. Particulars: mouse microsomes.
Data set [6] can be described thus: Cytotoxicity assay (CellTiter-Glo). The following applies: hamster.
Procedure: (§1) BHK21 cells (MEM with 2% FBS) were incubated with varying concentrations of inhibitor in a 96-well white plate for 24 hours at 37° C. and 5% CO2. CellTiter-Glo (Promega) solution was used to measure viability following the manufacturer's instructions. Luminescence was measured using a Biotek Synergy plate reader. […] The maximum concentration tested was 100 μM.
Data set [7] can be described thus: Dynamic light scattering particle size. It is filed as physicochemical. Particulars: DLS, 40 μM compound; for Particle size (with Tween 20): with detergent; for Particle size (no Tween): without detergent.
Data set [8] relates to DENV1, 2, 3, 4; ZIKV. Description: Plaque reduction assay (PRNT). It is filed as cell-based. The following applies: Zika virus, DENV1, read-out: EC50 (PRNT). As to the method: DENV1, 2, 3, 4 were tested on BHK-21 cells, and ZIKV was tested on Vero cells. Virus inocula were diluted in EBSS to 2500 pfu/ml as the final concentration, and were pre-incubated with different concentrations of small molecule inhibitors (2% DMSO vol/vol final concentration) for 45 min at 37° C., 5% CO2. The mixture (200 μl, 500 pfu of virus) was then added to cells for 1 hour (37° C., 5% CO2) to allow infection, after which the inoculum was removed, and the cells were washed with 1×PBS to remove unbound virus and compound. Cells were overlaid with carboxylmethylcellulose and incubated at 37° C., 5% CO2 to allow the formation of plaques (4 days for DENV1, 2, 3, 4 and 2-3 days for ZIKV). The cells were fixed and plaques visualized by staining of the cell monolayers with crystal violet Empirical analysis was performed to determine the PRNT50 (EC50 (PRNT)) value, defined as the inhibitor concentration needed to reduce plaque formation by 50%.

In data set [9] the target is AmpC β-lactamase (Escherichia coli, UniProt P00811). As to the kind of experiment: biochemical.
AmpC β-lactamase, sequence (P00811 20-377): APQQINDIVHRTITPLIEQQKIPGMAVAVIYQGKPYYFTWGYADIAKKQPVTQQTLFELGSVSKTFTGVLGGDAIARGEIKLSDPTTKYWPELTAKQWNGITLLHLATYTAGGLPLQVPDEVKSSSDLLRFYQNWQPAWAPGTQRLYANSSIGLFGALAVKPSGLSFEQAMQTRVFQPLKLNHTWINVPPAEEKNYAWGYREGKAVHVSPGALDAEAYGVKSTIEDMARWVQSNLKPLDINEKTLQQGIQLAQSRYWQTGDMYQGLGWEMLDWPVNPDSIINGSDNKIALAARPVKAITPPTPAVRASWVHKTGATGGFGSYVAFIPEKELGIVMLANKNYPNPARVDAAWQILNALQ
A short description of data set [10]: in vitro. Particulars: hamster.
Procedure: as §1
[11] abbreviates: concentration that inhibits 50% luminescence signal in the AlphaScreen competition assay, Table 1.
Where [12] appears, read: DENV2, concentration that reduces single-cycle viral yield by 10-fold, read-out: IC90 (DENV2 infectivity).
[13] abbreviates: T1/2 (mouse microsome), mouse microsomal stability.
Where [14] appears, read: DENV2, read-out: IC90 versus DENV2.
Setting [15] is: IC50 (AmpC, Triton), with detergent (0.01% Triton X-100).

Consider `COc1ccc(Nc2cc(C)c3cc(NC(=O)c4ccc(N(C)C)cc4)ccc3n2)cc1` [Compound C066-4182], for which the IC50 in data set [1] (setting [11]) was 1.4 ± 1.1 µM. In addition, binding in data set [2] was characterised by a dissociation constant (Kd) of 2.2 µM. Besides, the IC90 in data set [3] (setting [12]) came out at 17 ± 4.5 µM. Besides, in data set [4], the inhibition at 5 µM turned out to be 5% and the inhibition at 10 µM is 22%. For the same compound, in data set [5] (setting [13]), the half-life was found to be 5.3 min. The compound also gave a CC50 at 24 h in data set [6] of more than 50 µM.
In the case of `COC(=O)c1ccc(Cl)cc1NC(=O)CSc1ncc(S(=O)(=O)c2ccc(Br)cc2)c(=O)[nH]1` [Compound C200-5340], the IC50 in data set [1] (setting [11]) came to 3 ± 1.1 µM. For the same compound, the Kd in [2] amounted to 7.1 µM. Moreover, in [3] (setting [12]), the IC90 is 7.2 ± 3.5 µM. Besides, in [4], the “inhibition of VSV-eGFP in counter screen” value is “less potency”, the inhibition at 5 µM was determined as 20% and the inhibition at 10 µM came to 51%. For the same compound, in data set [7], the “Particle size (with Tween 20)” value is 7.5 (40 μM) nm and the “Particle size (no Tween)” value is 966 (40 μM) nm. Besides, the half-life in data set [5] (setting [13]) was found to be 4.2 min. Further, the CC50 at 24 h in [6] was more than 50 µM.
Regarding `Oc1ccc(C2NCCc3c2[nH]c2ccc(Cl)cc32)cc1O` (stereo not drawn) [Compound C200-9144], the IC50 in data set [1] (setting [11]) was determined as 2.6 ± 1.3 µM. The compound also came in with a Kd in [2] of 1.2 µM. In addition, in data set [3] (setting [14]), the IC90 is 3 µM. In addition, the IC90 in [3] (setting [12]) is 1.2 ± 0.4 µM. Besides, in data set [4], the “inhibition of VSV-eGFP in counter screen” value is listed as “less potency”, the inhibition at 5 µM was 76% and the inhibition at 10 µM came out at 77%. Also, in data set [7], the “Particle size (with Tween 20)” value was 8.3 (40 μM) nm and the “Particle size (no Tween)” value is on record as 1443 (40 μM) nm. Further, in data set [5] (setting [13]), the half-life amounted to 55.6 min. This compound also came in with a CC50 at 24 h in data set [6] of more than 50 µM.
`Cc1nc2c(C(=O)NCc3ccc4c(c3)OCO4)cnn2c(O)c1Cc1ccccc1F` [Compound C218-0288] returned an IC50 in [1] (Table 3) of 1.9 µM.
For `CCOc1ccc(CCNC(=O)c2cnn3c(O)cc(C4CCN(C(=O)OC(C)(C)C)CC4)nc23)cc1` [Compound C429-0385], the IC50 in [1] (Table 3) is 7.6 µM and 5.3 µM. The IC90 in [3] (DENV2, read-out: IC90 (DENV2 infectivity)) is approximately 3 µM. Also, the EC50 in [8] is 0.6 µM. The compound further had a CC50 at 24 h in [6] of more than 100 µM.
In the case of `CCCc1nn2c(=O)cc(CSc3nc(-c4ccc(C)cc4)nc4cc(=O)[nH]n34)nc2s1` [Compound G199-0398], the IC50 in data set [1] (setting [11]) worked out at 7 ± 3 µM. The IC90 in data set [3] (setting [12]) was determined as 8.8 ± 0.2 µM. In data set [4], the “inhibition of VSV-eGFP in counter screen” value is “strong inhibition efficiency”, the inhibition at 5 µM came to 33% and the inhibition at 10 µM was 59%. In data set [7], the “Particle size (with Tween 20)” value is reported as 7.2 (40 μM) nm and the “Particle size (no Tween)” value is 268 (40 μM) nm. For the same compound, the half-life in data set [5] (setting [13]) was 70.6 min. The half-life in [5] (stability half-life (text, printed Ti)) is approximately 70 min. In data set [6], this compound yielded a CC50 at 24 h of 68 µM.
In the case of `Cc1ccc(CCNC(=O)c2cnn3c(O)c(Cc4cc(C)ccc4C)c(C)nc23)cc1` [Compound K786-9739], in data set [1] (setting [11]), the IC50 was 3 ± 1.7 µM. The same compound had a Kd in data set [2] of 1.3 µM. The IC90 in data set [3] (setting [14]) came out at 3 µM. Besides, in [3] (setting [12]), the IC90 was 3.1 ± 0.1 µM. Also, in data set [4], the inhibition at 5 µM is 35% and the inhibition at 10 µM was found to be 63%. Moreover, in data set [7], the “Particle size (with Tween 20)” value was 7.1 (40 μM) nm and the “Particle size (no Tween)” value is recorded as 628 (40 μM) nm. This compound showed a half-life in [5] (setting [13]) of 14.9 min. The compound further returned a CC50 at 24 h in [6] of 81 µM.
For the compound `COc1cc(C(=O)NS(=O)(=O)c2ccccc2C)ccc1Cc1cn(C)c2ccc(NC(=O)OC3CCCC3)cc12` [Compound S1633], the IC50 in data set [1] (setting [11]) was 3.1 ± 1 µM; in data set [9] (IC50 (AmpC), without detergent), 36.6 µM; in [9] (setting [15]), more than 100 µM. The Kd in [2] is 5.2 µM. In data set [3] (setting [12]), the IC90 is 7 ± 2.8 µM. In [4], the inhibition at 5 µM amounted to 12%. Further, the inhibition at 10 µM in [4] stood at 40%. The “Particle size (with Tween 20)” value in data set [7] is reported as 9.2 (40 μM) nm. Also, in data set [7], the “Particle size (no Tween)” value is given as 823 (40 μM) nm. The same compound showed a CC50 at 24 h in data set [10] of 50 µM. In [5] (setting [13]), the half-life was 37.7 min.
With `Cc1cc(C(C#N)c2ccc(Cl)cc2)c(Cl)cc1NC(=O)c1cc(I)cc(I)c1O` (stereo not drawn) [Compound S4105], the IC50 in data set [1] (setting [11]) was 0.6 ± 0.2 µM; in data set [9] (IC50 (AmpC), without detergent), 19.5 µM; in data set [9] (setting [15]), more than 100 µM. Binding in data set [2] was characterised by a dissociation constant (Kd) of 0.9 µM. Also, the IC90 is 3 µM in [3] (setting [14]) and 0.8 ± 0.3 µM in [3] (setting [12]). Further, in data set [4], the “VSV 5 μM” value is 60%. Besides, in data set [4], the “VSV 10 μM” value amounted to 64%. The “Particle size (with Tween 20)” value in data set [7] is on record as 13.1 (40 μM) nm. Besides, the “Particle size (no Tween)” value in data set [7] was 82 (40 μM) nm. The CC50 at 24 h in data set [10] was 50 µM. The half-life in data set [5] (setting [13]) is more than 120 min.
For the compound `CN(CC(=O)N(Cc1ccc(C2CCCCC2)cc1)c1ccc(C(=O)O)cc1)S(=O)(=O)c1c(F)c(F)c(F)c(F)c1F` [Compound S7337], the IC50 was 4.1 ± 1.8 µM in [1] (setting [11]); more than 100 µM in data set [9] (IC50 (AmpC), without detergent); more than 100 µM in data set [9] (setting [15]). The compound also had a Kd in data set [2] of 1.3 µM. Besides, the IC90 amounted to 3 µM in [3] (setting [14]) and 2.7 ± 1 µM in data set [3] (setting [12]). For the same compound, the “inhibition of VSV-eGFP in counter screen” value in data set [4] is “less potency”. For the same compound, the “Particle size (with Tween 20)” value in data set [7] is listed as 8.2 (40 μM) nm. In addition, the “Particle size (no Tween)” value in [7] was 144 (40 μM) nm. Also, the half-life in [5] (setting [13]) was determined as 3.2 min. Moreover, the CC50 at 24 h in data set [6] amounted to 12.7 µM.
For `NC(=O)c1cccc(-c2cc(Nc3ccc(OC(F)(F)F)cc3)ncn2)c1` [GNF2, reference compound], in [1] (GNF2-biotin on donor beads, His6-tagged DENV2 sE2 on acceptor beads), the “competition of AlphaScreen signal” value is “competed away in a dose-dependent fashion”.
For the compound `Cc1nc2c(C(=O)NC3CCN(C)CC3)cnn2c(O)c1Cc1ccc(F)cc1` [JBJ-16-103], in [1] (Table 2), the “IC50 (AlphaScreen)” value was “No competition”.
Still for that read-out and setting: for `Cc1nc2c(C(=O)NCC3CCCN(C)C3)cnn2c(O)c1Cc1ccc(F)cc1` (stereo not drawn) [JBJ-16-104] the value was “No competition”.
`Cc1nc2c(C(=O)NCc3cccnc3)cnn2c(O)c1Cc1ccc(F)cc1` [JBJ-16-105] displayed an IC50 in data set [1] (Table 2) of more than 10 µM. The “(Anti-DENV2)% at 3 μM” value in [3] (3 μM) came out at 20%. Also, the “(Anti-DENV2)% at 10 μM” value in [3] (10 μM) is listed as 86%.
